Assay results reported in paper PMC6599039, “Structural and functional analysis of the role of the chaperonin CCT in mTOR complex assembly” (Nature Communications, 2019).

Biological target: T1, CCT8 in the human mLST8-CCT complex (Homo sapiens, UniProt P50990)
T1 construct: isolated from HEK-293T cells co-expressing His6-myc-PhLP1; no nucleotide added; with T-complex protein 1 subunit alpha; T-complex protein 1 subunit beta; T-complex protein 1 subunit gamma; T-complex protein 1 subunit delta; T-complex protein 1 subunit epsilon; T-complex protein 1 subunit zeta; T-complex protein 1 subunit eta; Target of rapamycin complex subunit LST8
T1 sequence (P50990 2-548): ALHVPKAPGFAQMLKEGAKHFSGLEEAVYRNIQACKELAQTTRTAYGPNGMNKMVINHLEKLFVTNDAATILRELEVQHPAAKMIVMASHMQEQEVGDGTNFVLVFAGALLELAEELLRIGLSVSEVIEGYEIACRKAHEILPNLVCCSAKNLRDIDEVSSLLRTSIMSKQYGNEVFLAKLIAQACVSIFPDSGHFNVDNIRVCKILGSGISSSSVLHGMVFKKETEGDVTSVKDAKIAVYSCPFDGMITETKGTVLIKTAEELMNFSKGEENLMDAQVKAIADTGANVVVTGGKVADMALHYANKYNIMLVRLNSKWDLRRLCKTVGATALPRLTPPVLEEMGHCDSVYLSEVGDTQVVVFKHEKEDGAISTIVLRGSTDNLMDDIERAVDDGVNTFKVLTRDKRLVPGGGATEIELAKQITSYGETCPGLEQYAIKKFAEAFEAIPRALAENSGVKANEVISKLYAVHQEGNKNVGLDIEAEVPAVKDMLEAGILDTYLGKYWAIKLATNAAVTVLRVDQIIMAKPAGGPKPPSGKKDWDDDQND
Assay: cryo-EM structure of the complex ([…] A)
Conditions: co-purified nucleotide, none added; equatorial nucleotide-binding pocket of both CCT8 subunits

In the case of `Nc1ncnc2c1ncn2[C@@H]1O[C@H](COP(=O)(O)OP(=O)(O)O)[C@@H](O)[C@H]1O` [ADP], the “cryo-EM structure of the complex (4.0 A)” value is reported as “nucleotide-binding pocket of either of the CCT8 subunits revealed electron density that is clearly attributable to ADP”.
